Counter-ions that a name gives are not always drawn.
Tests used:
[1] = target: T1, recombinant human trypsin (Homo sapiens, UniProt P07477); experiment: Small molecule binding to trypsin-immobilized surface, PWV shift
T1 construct: purchased Polymum Lot#H149L091.1
Protocol: (§1) Trypsin was tested to determine what other proteins could be successfully immobilized on high-density polymer surfaces. Like above, high-density polymer surfaces were activated by adding 0.34 M EDC/10 mM NHS in water for 10 min, followed by removing the solution. 50 μg/ml trypsin in non-amine containing buffer was added to the wells, and was incubated for up to around 700 min, followed by a wash first with acetic buffer, then PBS. The trypsin was recombinant human protein from Polymum Lot#H149L091.1. The results of trypsin binding over time, as a function of delta PWV, are shown in FIG. 14, as well as an NHS control. 90% of the protein was immobilized within less than 2 hr. Benzamidine was then added for binding to the immobilized trypsin by adding benzamidine at a final concentration of 67 μM in PBS, pH 7.4. Benzamidine has a molecular weight of 120.15, and an expected delta PWV or PWV shift of 36 pm.
(§2) Antipain was then added for binding to the low COOH density surfaces. 49.2, 12.3, 3.1, and 1 μM antipain dihydrochloride in PBS was prepared from a microbial source and was added to the 3.8 nm delta PWV shift from trypsin immobilization. 49.2 μM antipain was also added to no trypsin control wells (N=4). […] The theoretical shift of antipain of 1:1 binding on 3.8 nm delta PWV shift trypsin surface is […]. The control, 49.2 μM antipain in a well with no trypsin immobilization, had […] bulk or NSB PWV shift.
(§3) Leupeptin was also added for binding to the low COOH density surfaces. 88, 22, 5.5, and 0 μM leupeptin dihydrochloride solutions in PBS were prepared and were added to the 3.8 nm delta PWV shift trypsin immobilization surfaces. 88 μM leupeptin was also added to no trypsin control wells (N=2). […] The theoretical shift of leupeptin of 1:1 binding on 3.8 nm delta PWV trypsin is […]. The control 88 μM leupeptin with no trypsin immobilization had 12 nm bulk or NSB shift.

streptavidin = streptavidin (Streptomyces avidinii, UniProt P22629); experiment: Biotin binding to immobilized streptavidin on PAA surfaces
Protocol: (§4) In order to immobilize protein to the novel surfaces, the high-density polymer surfaces of Examples 2 and 3 were activated by adding 0.34 M EDC/10 mM NHS in water for 10 min, followed by removing the solution. In an initial test of protein immobilization capability and protein activity following immobilization, biotin binding to immobilized streptavidin was used—20 μL of either 200 μg/ml avidin or streptavidin in a non-amine containing buffer (10 mM acetate buffer, pH 5.0) were added to the surface and incubated for 3 hr, followed by a wash first with the non-amine containing buffer, then PBS. Biotin was then added for binding to the immobilized avidin or streptavidin by using a 20 μL of a biotin solution in PBS to result in a final Biotin concentration of approximately 58 μM (N=4).
(§5) 20 μL of either 0, 50, or 200 μg/ml avidin or streptavidin in a non-amine containing buffer were added to the wells after they were pre-activated for 10 min with EDC/NHS, and incubated for 3 hr. This was then followed by a wash first with the non-amine containing buffer. Biotin was then added for binding to the immobilized avidin or streptavidin by adding 20 μL of a biotin solution in PBS to result in a final Biotin concentration of approximately 58 μM (N=4).

avidin = avidin (Gallus gallus, UniProt P02701); experiment: Biotin binding to immobilized avidin on PAA surfaces
Protocol: as §4, §5

[2] = Bulk or NSB PWV shift in no trypsin control wells; details: 88 μM leupeptin, no trypsin immobilization
Protocol: as §2, §3

[3] = Streptavidin/avidin immobilization on high-density polymer (PAA) surfaces, SWS biosensor PWV shift; assay type: binding
Protocol: as §4
The initial test was followed up by reacting different concentrations of avidin or streptavidin with the different high-density polymer surfaces.
as §5

[4] = Trypsin immobilization on high-density polymer surfaces, delta PWV; assay type: binding; details: for course of immobilization: 10 mM acetate buffer pH 5.0, 3 hr
Protocol: as §1
Trypsin binding was also measured on both high and low COOH density surfaces. 100 μg of human recombinant trypsin in 10 mM acetate buffer pH 5.0 was immobilized on either a high or low COOH density surface for 3 hr.

[5] = PAA coated under theta condition, biotin approximately 58 μM
[6] = low COOH density surfaces (versus high)
[7] = PAA 100K, high COOH density surface, coated with 1/6 dilution NHS/EDC (theta condition) compared to the other dilutions
[8] = PAA 100K, low COOH density surface, coated with 1/6 dilution NHS/EDC (theta condition) compared to the other dilutions
[9] = PAA 250K, high COOH density surface, coated with 1/6 and 1/8 dilution NHS/EDC (theta condition) compared to the other dilutions
[10] = PAA 250K, low COOH density surface, coated with 1/6 and 1/8 dilution NHS/EDC (theta condition) compared to the other dilutions

Sequence of avidin (P02701 25-152, species assumed): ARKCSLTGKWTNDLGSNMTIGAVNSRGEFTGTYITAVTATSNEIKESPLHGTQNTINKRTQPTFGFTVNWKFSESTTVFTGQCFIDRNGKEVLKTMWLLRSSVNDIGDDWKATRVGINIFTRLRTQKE
Sequence of streptavidin (P22629 25-183, species assumed): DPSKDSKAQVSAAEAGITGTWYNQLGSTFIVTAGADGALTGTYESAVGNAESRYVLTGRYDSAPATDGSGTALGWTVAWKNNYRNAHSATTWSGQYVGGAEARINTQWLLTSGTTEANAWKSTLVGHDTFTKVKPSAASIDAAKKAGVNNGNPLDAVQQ

N=C(N)c1ccccc1 [Benzamidine]
expected delta PWV or PWV shift ([1]; benzamidine 67 μM in PBS, pH 7.4): 36 pm

O=C(O)CCCC[C@@H]1SC[C@@H]2NC(=O)N[C@@H]21 [Biotin]
biotin binding (streptavidin; [5]): higher biotin binding
activity of streptavidin for biotin interaction (streptavidin; [6]): more activity
biotin binding (avidin; [5]): higher biotin binding
activity of avidin for biotin interaction (avidin; [6]): more activity

CC(=O)N[C@@H](CC(C)C)C(=O)N[C@@H](CC(C)C)C(=O)N[C@H](C=O)CCCNC(=N)N [leupeptin, leupeptin dihydrochloride]
binding to immobilized trypsin (titration) ([1]; 3.8 nm delta PWV trypsin on low COOH density surface): Titration of leupeptin was observed
binding to immobilized trypsin ([1]; 7.2 nm delta PWV trypsin on high COOH density surface): No positive result was observed
theoretical shift of 1:1 binding ([1]; on 3.8 nm delta PWV shift trypsin surface): 66 nm
bulk or NSB shift [2]: 12 nm

avidin
protein immobilization (PWV) [3, 7]: More avidin was immobilized
protein immobilization (PWV) [3, 8]: More avidin was immobilized
protein immobilization (PWV) [3, 9]: More avidin was immobilized
protein immobilization (PWV) [3, 10]: More avidin was immobilized

streptavidin
protein immobilization (PWV) [3, 7]: More streptavidin was immobilized
protein immobilization (PWV) [3, 8]: More streptavidin was immobilized
protein immobilization (PWV) [3, 9]: More streptavidin was immobilized
protein immobilization (PWV) [3, 10]: More streptavidin was immobilized

trypsin
time within which 90% of the protein was immobilized ([4]; 50 μg/ml trypsin in non-amine containing buffer): less than 2 hr
delta PWV of trypsin immobilization ([4]; high COOH density surface): 7.2 nm
course of immobilization ([4]; high COOH density surface): immobilized rapidly
delta PWV of trypsin immobilization ([4]; low COOH density surface): 3.8 nm
course of immobilization ([4]; low COOH density surface): slow but rising constantly

Reference: US20120101230A1, “HIGH-DENSITY POLYMER SURFACE COATING TO IMMOBILIZE CHEMICAL OR BIOLOGICAL MOLECULES” (priority 2009, published 2012)
